Data taken from ChEMBL document CHEMBL1151225, “New neolignans that inhibit DNA polymerase beta lyase” (J Nat Prod, 2004).

Target: DNA polymerase beta (Homo sapiens, UniProt P06746)
Experiment: Inhibition of DNA polymerase beta lyase activity

`C=CC[C@@]12C=C(O)C(=O)[C@](O)([C@H](c3ccc4c(c3)OCO4)[C@H]1C)[C@@H]2O` was tested. Which IC50 did it give?
Its IC50 is greater than 50 µM.

`C=CC[C@@]12C=C(O)C(=O)[C@](OC)([C@H](c3ccc4c(c3)OCO4)[C@H]1C)[C@@H]2O` was tested. Which IC50 did it give?
The IC50 was 21.6 µM.

With `C=CC[C@@]12C=C(OC)C(=O)[C@](OC)([C@H](c3ccc4c(c3)OCO4)[C@H]1C)[C@@H]2O` as the compound, how does the IC50 read?
The IC50 was greater than 50 µM.

`C=CCc1c(OC)cc(OC)c2c1OCO2` was tested. Which IC50 did it give?
The IC50 was 18.6 µM.

How did the IC50 turn out when `C=CC[C@@]12CC(=O)[C@@H](O)[C@@](OC)([C@@H]1O)[C@@H](c1ccc3c(c1)OCO3)[C@@H]2C` [CANELLIN C] was run?
The IC50 was 32.4 µM.

Which IC50 does the source give for `C=CCc1cc2c(c(OC)c1OC)OCO2` [DILLAPIOLE] here?
Its IC50 is greater than 50 µM.

Which IC50 does the source give for `COc1c(/C=C/CO)cc2c(c1OC)OCO2` here?
The IC50 was greater than 50 µM.

For `C=CC[C@@]12C[C@H](OC)[C@@H](O)[C@@](OC)([C@@H]1O)[C@@H](c1ccc3c(c1)OCO3)[C@@H]2C` [CANELLIN A], which IC50 is on record?
Its IC50 is 26.5 µM.

For `COc1cc2c(c(OC)c1/C=C/CO)OCO2`, which IC50 is on record?
The IC50 was 43.5 µM.

Which IC50 does the source give for `C=CC[C@@]12C=C(OC)C(=O)[C@](O)([C@H](c3ccc4c(c3)OCO4)[C@H]1C)[C@@H]2O` here?
The IC50 was 15.3 µM.

How did the IC50 turn out when `C=CCc1c(OC)cc2c(c1OC)OCO2` was run?
The IC50 was 34.2 µM.

For `C=CC[C@]12C[C@@H](OC)C(=O)C(OC)=C1O[C@H](c1ccc3c(c1)OCO3)[C@H]2C`, which IC50 is on record?
Its IC50 is 12.3 µM.
